In ChEMBL document CHEMBL1129206, “Probing the specificity of the S1 binding site of M222 mutants of subtilisin B. lentus with boronic acid inhibitors” (Bioorg Med Chem Lett, 1996):
pKi: −log10 of the molar value.

What was measured:
Set-up in all cases: species or system Lederbergia lenta
Subtilisin BL [1] = target: Subtilisin BL (Bacillus lentus, UniProt P29599, M222S)
Subtilisin BL [2] = target: Subtilisin BL (Bacillus lentus, UniProt P29599, M222C)
Subtilisin BL [3] = target: T1, Subtilisin BL (Bacillus lentus, UniProt P29599); experiment: Competitive inhibition of Subtilisin BL wild type enzyme from Bacillus lentus
T1 sequence (P29599 whole entry): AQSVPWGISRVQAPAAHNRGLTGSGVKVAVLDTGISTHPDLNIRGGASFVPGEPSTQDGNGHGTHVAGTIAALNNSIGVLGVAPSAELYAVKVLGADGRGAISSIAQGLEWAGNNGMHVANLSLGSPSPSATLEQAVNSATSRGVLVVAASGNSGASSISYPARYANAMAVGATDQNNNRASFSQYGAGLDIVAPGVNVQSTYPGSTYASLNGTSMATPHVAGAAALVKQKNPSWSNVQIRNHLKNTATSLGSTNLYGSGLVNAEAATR

| Compound | pKi (Subtilisin BL [1]) | pKi (Subtilisin BL [2]) | pKi (Subtilisin BL [3]) |
| --- | --- | --- | --- |
| COc1ccc(B(O)O)cc1 | 3.51 | 3.12 | 3.24 |
| OB(O)c1ccc(Cl)cc1Cl | 5.10 | 4.74 | 5.04 |
| OB(O)c1ccc(Br)cc1 | 5.00 | 4.64 | 4.64 |
| COc1ccc(CCB(O)O)cc1 | 3.66 | 3.50 | 3.01 |
| OB(O)CCc1ccc2ccccc2c1 | < 3.00 | < 3.00 | 2.80 |
| Nc1cccc(B(O)O)c1 | 4.14 | 3.69 | 3.82 |
| OB(O)c1cccc(-c2ccccc2)c1 | 4.16 | 4.51 | 3.49 |
| OB(O)CCc1ccc(Cl)cc1 | 3.96 | 3.63 | 3.49 |
| OB(O)c1ccccc1 [PHENYLBORONIC ACID] | 4.02 | 3.81 | 3.85 |
